Test results as given in patent US10196344B2, “Glaucocalyxin a derivative and preparation method and application thereof” (SUZHOU PHARMAVAN CANCER RESEARCH CENTER CO., LTD., priority 2015, dated 2019).
Entries after “also recorded” stand apart in the source; their conditions may differ. Read-outs that look alike come from different tables or passages of the source.

How the values were obtained:
Water solubility = type: physicochemical; conditions: found by the inventors by means of experiments
[1] = test system: A549 cell line of lung cancer; test: Cell proliferation assay (MTT), A549; type: cell-based; conditions: 1-100 μmol/L, 48 h, FIG. 7-8
Method: (§1) Cell Proliferation Assay (MTT): The experiment assaying the inhibition of dimethylamino glaucocalyxin A hydrochloride salt (hereinafter referred to as GH02) and glaucocalyxin A (i.e. GLA) on cell proliferation of cancer cell lines was performed as follows: cells of cancer cell lines were adjusted to a density of 10^4/100 μL and were seeded into 96-well plates at 100 μL per well and cultured overnight until the cells were completely adherent and grown up to 70-80% confluence. […] Subsequently, the supernatant was removed, 150 μL DMSO was added to each well and incubated with shaking for 10 min, and then the absorbance was measured at 490 nm on a microplate reader. Inhibitory rate of the cell proliferation=[(absorbance of the control group−absorbance of blank)−(absorbance of the medication group−absorbance of blank)]/(absorbance of the control group−absorbance of blank)% As shown in FIG. 4 to FIG. 6, MDA-MB-231 and MCF-7 are cell lines of breast cancer, SGC-7901 is a cell line of gastric cancer, U251 is a cell line of glioma, and A549 is a cell line of lung cancer.

[2] = test system: SGC-7901 cell line of gastric cancer; test: Cell proliferation assay (MTT), SGC-7901; type: cell-based; conditions: 1-100 μmol/L, 48 h, FIG. 7-8
Method: as §1

[3] = test system: MCF-7 cell line of breast cancer; test: Cell proliferation assay (MTT), MCF-7; type: cell-based; conditions: 1-100 μmol/L, 48 h, FIG. 7-8
Method: as §1

[4] = Oral bioavailability / in vivo pharmacokinetics; conditions: when used as a drug; found by the inventors by means of experiments
U251 cell line of glioma = test: Cell proliferation assay (MTT), U251; type: cell-based; conditions: 1-100 μmol/L, 48 h, FIG. 7-8
Method: as §1

[5] = test system: MDA-MB-231 breast cancer cell line; test: Cell proliferation assay (MTT), MDA-MB-231; type: cell-based; conditions: 48 h; for Inhibitory rate of the cell proliferation versus concentration: 1-100 μmol/L; for IC50 for the inhibition of proliferation, compared among five cell lines: MTT
Method: Cell Proliferation Assay (MTT): The experiment assaying the inhibition of dimethylamino glaucocalyxin A hydrochloride salt (hereinafter referred to as GH02) and glaucocalyxin A (i.e. GLA) on cell proliferation of cancer cell lines was performed as follows: cells of cancer cell lines were adjusted to a density of 10^4/100 μL and were seeded into 96-well plates at 100 μL per well and cultured overnight until the cells were completely adherent and grown up to 70-80% confluence. The mother liquid of GH02 and GLA (both of which concentrations were 100 mM) were diluted with complete medium, respectively, to final concentrations of 1, 3.125, 6.25, 12.5, 25, 50, 100 μmol/L, and then such diluted solutions were added into wells of 96-well plates, with each concentration being performed in 4 replicates, and the group without cells acting as blank control, and then incubated in the incubator at […]. After incubation for 48 h, MTT was added to each well to a final concentration of 0.5 mg/ml and further incubated in the incubator at […] for 4 h. Subsequently, the supernatant was removed, 150 μL DMSO was added to each well and incubated with shaking for 10 min, and then the absorbance was measured at 490 nm on a microplate reader. Inhibitory rate of the cell proliferation=[(absorbance of the control group−absorbance of blank)−(absorbance of the medication group−absorbance of blank)]/(absorbance of the control group−absorbance of blank)% As shown in FIG. 4 to FIG. 6, MDA-MB-231 and MCF-7 are cell lines of breast cancer, SGC-7901 is a cell line of gastric cancer, U251 is a cell line of glioma, and A549 is a cell line of lung cancer.

[6] = background statement; cited from earlier work
[7] = background statement; cited from earlier work; remark: listed apart in the source

Compound: CN(C)CC1C(=O)C23C(O)C1CCC2[C@]1(C)CCC(=O)C(C)(C)[C@H]1C[C@H]3O.Cl (some centres unmarked) [GH02, dimethylamino glaucocalyxin A hydrochloride]
- water solubility (Water solubility): good water solubility
- Inhibitory rate of the cell proliferation versus concentration [1]: increased with the increase of the concentration of GH02
- Inhibitory rate of the cell proliferation versus concentration [2]: increased with the increase of the concentration of GH02
- Inhibitory rate of the cell proliferation versus concentration [3]: increased with the increase of the concentration of GH02
- oral bioavailability [4]: high oral bioavailability
- Inhibitory rate of the cell proliferation versus concentration (U251 cell line of glioma): increased with the increase of the concentration of GH02
- Inhibitory rate of the cell proliferation versus concentration ([5]; FIG. 7-8, hydrochloride): increased with the increase of the concentration of GH02; also recorded: highest inhibitory rate
- IC50 for the inhibition of proliferation, compared among five cell lines ([5]; FIG. 4-6, hydrochloride): lowest IC50 values

Compound: C=C1C(=O)C23C(O)C1CCC2[C@]1(C)CCC(=O)C(C)(C)[C@H]1C[C@H]3O (stereo partly drawn) [GLA, Kaur-16-ene-3,15-dione,(7α, 14R)—]
- Inhibitory rate of the cell proliferation versus concentration [1]: increased with the increase of the concentration of GLA
- bioavailability in vivo [6]: low bioavailability
- half-life in vivo [6]: short half-life
- Inhibitory rate of the cell proliferation versus concentration [2]: increased with the increase of the concentration of GLA
- Inhibitory rate of the cell proliferation versus concentration [3]: increased with the increase of the concentration of GLA
- Inhibitory rate of the cell proliferation versus concentration (U251 cell line of glioma): increased with the increase of the concentration of GLA
- Inhibitory rate of the cell proliferation versus concentration ([5]; FIG. 7-8): increased with the increase of the concentration of GLA; also recorded: highest inhibitory rate
- IC50 for the inhibition of proliferation, compared among five cell lines ([5]; FIG. 4-6): lowest IC50 values
- water solubility [7]: poor water solubility
